Laboratory results taken from PubChem BioAssay AID2060492 (Molecular Pharmacology Branch, DTP, NCI, 2025).

Test system: 695427-040-R-J1-PDC complex spheroids, viability percent T/C
Assay: Anticancer human tumor 695427-040-R-J1-PDC patient-derived colon adenocarcinoma cell line growth inhibition [GQUAD]
Settings: for IC50: curve of first compound; for viability, T/C: stronger effect = lower value
Source text: DNA G-quadruplex Stabilizer Agents in Combinations in Complex Spheroids
A high-throughput screen of multi-cell type tumor spheroids was designed to identify active combinations of DNA G-quadruplex stabilizer agents and targeted small molecules. Complex spheroids include a stromal component modeled by human endothelial cells (HUVEC) and fibroblasts modeled by human mesenchymal stem cells (MSCs). The concentration ranges selected for each drug and investigational agent were based upon clinically achievable concentrations if the clinical Cmax of the agent was known.
Compounds. The drugs and investigational agents: pidnarulex (CX-5461; NSC782164), APTO-253 (NSC789042), BRACO-19 (NSC847499), peposertib (NSC802822), ceralasertib (NSC780249), elimusertib (NSC800525), camonsertib (NSC841442), AZD-1390 (NSC803789), olaparib (NSC753686), talazoparib (NSC767125), ART-558 (NSC835418), sotorasib (NSC818433), MRTX-1133 (NSC836407), SN-38 (NSC673596), topotecan (NSC609699), etoposide (NSC141540), doxorubicin (NSC123127), gemcitabine (NSC613327), 5-fluorouracil (NSC19893), paclitaxel (NSC125973), vemurafenib (NSC761431), panobinostat (NSC761190), R-306465 (JNJ-16241199; NSC773264), adavosertib (NSC754352), TP-3654 (NSC805149), carboplatin (NSC241240), KSQ-4279 (NSC840948), and staurosporine (NSC755774) were obtained from the National Cancer Institute (NCI) Developmental Therapeutics Program Chemical Repository (34). The FDA-approved anticancer drug set is available from the NCI Developmental Therapeutics Program. […] The stock solutions were prepared in dimethyl sulfoxide (DMSO, Sigma-Aldrich, St. Louis, MO, cat. D2650) at 800-fold the tested concentration and stored at -70 degrees C prior to their use. All drugs and investigational agents were tested over a range starting from a high concentration at or near the clinical Cmax and decreasing in half-log increments. If the clinical Cmax for an agent had not been determined, the highest concentration tested was 10 microM.
2.3 Cell Culture. All cells were maintained in an incubator at 37 degrees C and 5% CO2 with 95% humidity. The PDC lines were cultured according to standard operating procedures established by the NCI PDMR. All PDCs were thawed and cultured in Matrigel-coated flasks prepared with a working solution of 1X Ham's F-12 nutrient mix, without supplementation (Invitrogen, cat. 11765054), 100 U/mL penicillin-streptomycin (Invitrogen, cat. 15140122), and 2.5% Matrigel (Corning Inc., cat. 354248) for the first three passages. The 857933-349-R-J2-PDC line was cultured in 6C/Colon 1B media, which includes advanced DMEM/F-12 (Thermo Fisher Scientific, cat. 12634028), 10 mM HEPES (Thermo Fisher Scientific, cat. 15630080), 1X GlutaMAX supplement (Thermo Fisher Scientific, cat. 35050061), 0.1 mg/mL primocin (InvivoGen, cat. ant-pm-2), 10% defined fetal bovine serum, heat inactivated (HyClone Laboratories Inc., cat. SH30070.03HI), 50% L-WRN conditioned media (ATCC, cat. CRL-3276), 1.25 mM N-Acetyl-L-cysteine (Sigma-Aldrich, cat. A9165), 10 mM nicotinamide (Sigma-Aldrich, cat. N0636), 1X B-27 supplement (Thermo Fisher Scientific, cat. 17504044), 1X N-2 supplement (Thermo Fisher Scientific, cat. 17502048), 10 microM Y-27632 dihydrochloride (Tocris Bioscience, cat. 1254), and 50 ng/mL human EGF recombinant protein (Thermo Fisher Scientific, cat. PHG0311). The 485176-168-R4-J1-PDC line was cultured in Panc media, which includes all 6C/Colon 1B media components plus 100 ng/mL human FGF-10 (Thermo Fisher Scientific, cat. 100-26), 500 nM SB-431542 (Selleckchem, cat. S1067), and gastrin (Tocris, cat. 3006).
[…]

[1] = second compound 0.0316 µM, first compound 0.0316 µM
[2] = second compound 0.0316 µM, first compound 0.316 µM
[3] = second compound 0.1 µM, first compound 0.0316 µM
[4] = second compound 0.1 µM, first compound 0.316 µM
[5] = second compound 0.316 µM, first compound 0.0316 µM
[6] = second compound 0.316 µM, first compound 0.316 µM
[7] = second compound 1 µM, first compound 0.0316 µM
[8] = second compound 1 µM, first compound 0.316 µM
[9] = second compound 3.16 µM, first compound 0.0316 µM
[10] = second compound 3.16 µM, first compound 0.316 µM
[11] = second compound 10 µM, first compound 0.0316 µM
[12] = second compound 10 µM, first compound 0.316 µM
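Note: spheroids exposed to compounds for seven days before readout.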

With CC(C)(O)C1CCC(Nc2ccc3ncc(-c4cccc(C(F)(F)F)c4)n3n2)CC1 (centres undefined) + Cc1[nH]c2ccc(F)cc2c1-c1nc2c3cccnc3c3ncccc3c2[nH]1 the IC50 (second compound 0.0316 µM) was > 10 µM, the IC50 (second compound 0.1 µM) was > 10 µM and the IC50 (second compound 0.316 µM) was > 10 µM. The IC50 (second compound 1 µM) was > 10 µM, the IC50 (second compound 3.16 µM) was > 10 µM and the IC50 (second compound 10 µM) was > 10 µM. The viability, T/C [1] was 109%, the viability, T/C (second compound 0.0316 µM, first compound 0.1 µM) was 99.1% and the viability, T/C [2] was 109%. For the same compound, the viability, T/C (second compound 0.0316 µM, first compound 1 µM) was 95.6%, the viability, T/C (second compound 0.0316 µM, first compound 3.16 µM) was 99.8% and the viability, T/C (second compound 0.0316 µM, first compound 10 µM) was 82.5%. It also gave a viability, T/C [3] of 110%, a viability, T/C (second compound 0.1 µM, first compound 0.1 µM) of 100% and a viability, T/C [4] of 103%. It also gave a viability, T/C (second compound 0.1 µM, first compound 1 µM) of 100%, a viability, T/C (second compound 0.1 µM, first compound 3.16 µM) of 100% and a viability, T/C (second compound 0.1 µM, first compound 10 µM) of 81.9%. The viability, T/C [5] was 101%, the viability, T/C (second compound 0.316 µM, first compound 0.1 µM) was 102% and the viability, T/C [6] was 97.6%. It also gave a viability, T/C (second compound 0.316 µM, first compound 1 µM) of 93.2%, a viability, T/C (second compound 0.316 µM, first compound 3.16 µM) of 99.7% and a viability, T/C (second compound 0.316 µM, first compound 10 µM) of 80.1%. It also gave a viability, T/C [7] of 102%, a viability, T/C (second compound 1 µM, first compound 0.1 µM) of 89.4% and a viability, T/C [8] of 96.8%. It also gave a viability, T/C (second compound 1 µM, first compound 1 µM) of 87.6%, a viability, T/C (second compound 1 µM, first compound 3.16 µM) of 91.4% and a viability, T/C (second compound 1 µM, first compound 10 µM) of 78%. For the same compound, the viability, T/C [9] was 91.6%, the viability, T/C (second compound 3.16 µM, first compound 0.1 µM) was 86.9% and the viability, T/C [10] was 76.4%. The viability, T/C (second compound 3.16 µM, first compound 1 µM) was 89.5%, the viability, T/C (second compound 3.16 µM, first compound 3.16 µM) was 93.5% and the viability, T/C (second compound 3.16 µM, first compound 10 µM) was 62.5%. It also gave a viability, T/C [11] of 79%, a viability, T/C (second compound 10 µM, first compound 0.1 µM) of 68.6% and a viability, T/C [12] of 81.7%. It also gave a viability, T/C (second compound 10 µM, first compound 1 µM) of 80.5%, a viability, T/C (second compound 10 µM, first compound 3.16 µM) of 80% and a viability, T/C (second compound 10 µM, first compound 10 µM) of 67.3%.

Cn1ncnc1[C@H]1c2n[nH]c(=O)c3cc(F)cc(c23)N[C@@H]1c1ccc(F)cc1 + Cc1[nH]c2ccc(F)cc2c1-c1nc2c3cccnc3c3ncccc3c2[nH]1 was tested, and the IC50 (second compound 0.0316 µM) was > 0.316 µM, the IC50 (second compound 0.1 µM) was > 0.316 µM and the IC50 (second compound 0.316 µM) was > 0.316 µM. For the same compound, the IC50 (second compound 1 µM) was > 0.316 µM, the IC50 (second compound 3.16 µM) was > 0.316 µM and the IC50 (second compound 10 µM) was > 0.316 µM. It also gave a viability, T/C (second compound 0.0316 µM, first compound 0.000999 µM) of 98.9%, a viability, T/C (second compound 0.0316 µM, first compound 0.00316 µM) of 86.2% and a viability, T/C (second compound 0.0316 µM, first compound 0.00999 µM) of 98.2%. It also gave a viability, T/C [1] of 103%, a viability, T/C (second compound 0.0316 µM, first compound 0.0999 µM) of 104% and a viability, T/C [2] of 66.6%. The viability, T/C (second compound 0.1 µM, first compound 0.000999 µM) was 99.1%, the viability, T/C (second compound 0.1 µM, first compound 0.00316 µM) was 93.8% and the viability, T/C (second compound 0.1 µM, first compound 0.00999 µM) was 82%. It also gave a viability, T/C [3] of 79.8%, a viability, T/C (second compound 0.1 µM, first compound 0.0999 µM) of 97.8% and a viability, T/C [4] of 66.8%. For the same compound, the viability, T/C (second compound 0.316 µM, first compound 0.000999 µM) was 99.7%, the viability, T/C (second compound 0.316 µM, first compound 0.00316 µM) was 84.7% and the viability, T/C (second compound 0.316 µM, first compound 0.00999 µM) was 91.4%. For the same compound, the viability, T/C [5] was 89.1%, the viability, T/C (second compound 0.316 µM, first compound 0.0999 µM) was 103% and the viability, T/C [6] was 81.9%. The viability, T/C (second compound 1 µM, first compound 0.000999 µM) was 97.4%, the viability, T/C (second compound 1 µM, first compound 0.00316 µM) was 68.8% and the viability, T/C (second compound 1 µM, first compound 0.00999 µM) was 87.5%. The viability, T/C [7] was 91.3%, the viability, T/C (second compound 1 µM, first compound 0.0999 µM) was 96.1% and the viability, T/C [8] was 68.2%. The viability, T/C (second compound 3.16 µM, first compound 0.000999 µM) was 76.8%, the viability, T/C (second compound 3.16 µM, first compound 0.00316 µM) was 87% and the viability, T/C (second compound 3.16 µM, first compound 0.00999 µM) was 85.3%. It also gave a viability, T/C [9] of 79.9%, a viability, T/C (second compound 3.16 µM, first compound 0.0999 µM) of 83.7% and a viability, T/C [10] of 86%. It also gave a viability, T/C (second compound 10 µM, first compound 0.000999 µM) of 70.9%, a viability, T/C (second compound 10 µM, first compound 0.00316 µM) of 56.1% and a viability, T/C (second compound 10 µM, first compound 0.00999 µM) of 88.3%. It also gave a viability, T/C [11] of 80.5%, a viability, T/C (second compound 10 µM, first compound 0.0999 µM) of 82.7% and a viability, T/C [12] of 74.3%.
